Molecular target: T1, TGF-beta receptor type-1 (Homo sapiens, UniProt P36897)
T1 sequence (P36897 whole entry): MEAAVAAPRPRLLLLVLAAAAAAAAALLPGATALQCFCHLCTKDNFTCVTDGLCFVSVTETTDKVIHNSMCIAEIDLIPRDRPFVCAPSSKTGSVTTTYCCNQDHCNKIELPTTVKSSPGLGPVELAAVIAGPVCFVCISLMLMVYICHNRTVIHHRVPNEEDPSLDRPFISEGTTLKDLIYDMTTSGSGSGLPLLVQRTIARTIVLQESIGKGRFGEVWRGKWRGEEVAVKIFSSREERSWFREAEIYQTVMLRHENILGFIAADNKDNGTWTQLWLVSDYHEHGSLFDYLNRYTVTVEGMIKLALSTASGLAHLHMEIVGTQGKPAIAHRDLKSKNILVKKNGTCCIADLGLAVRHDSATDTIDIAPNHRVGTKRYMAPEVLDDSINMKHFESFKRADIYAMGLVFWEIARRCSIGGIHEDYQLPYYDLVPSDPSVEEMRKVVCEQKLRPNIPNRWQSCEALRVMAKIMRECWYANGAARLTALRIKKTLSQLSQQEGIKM
Assay: LanthaScreen™Eu Kinase Binding Assay TGFBR1 (ALK5): Exemplified compounds were screened in 1% DMSO (final concentration) by 3-fold serial dilutions from 10,000 nM to 0.316 nM to produce an IC50 or at single concentrations of 10,000, 1000 and 100 nM according to the following protocol. To low volume, white 384-well plates (Greiner Cat #784207) add 160 nL 100× compound in 100% DMSO, 3.84 uL kinase buffer (50 mM HEPES, pH 7.5, 0.01% BRIJ-35, 10 mM MgCl2, 1 mM EGTA), 8 uL 2× kinase/antibody mixture in kinase buffer (final ALK5 concentration of 5 nM; final Eu-anti-GST antibody concentration of 2 nM), 4 uL 4× Tracer #178 in kinase buffer (final concentration of 5 nM). Gently shake the plates for 30 seconds and incubate at room temperature for 1 hour before reading fluorescence on a plate reader. Percent inhibition was determined compared to DMSO only control (maximal ALK5 tracer binding) and sigmoidal dose response curve fit yielded IC50 values as indicated in Table 2.

Row | SMILES | IC50 [nM]
1 | CC(C)n1ccc(-c2nc(CNc3cc(F)cc(F)c3)[nH]c2-c2ccc3nccnc3c2)n1 | 46.4
2 | CC(C)n1ccc(-c2nc(CNc3cc(F)cc(C#N)c3)[nH]c2-c2ccc3nccnc3c2)n1 | 138
3 | CC(C)n1ccc(-c2nc(-c3ccc(C(N)=O)cc3)[nH]c2-c2ccc3ncnn3c2)n1 | < 1000

Source: ChEMBL document CHEMBL5728730, “Tri-substituted imidazoles for the inhibition of TGF beta and methods of treatment” (2021)
